The source of these data is ChEMBL document CHEMBL4765314, “Rational design and biological evaluation of gemfibrozil modified Xenopus GLP-1 derivatives as long-acting hypoglycemic agents” (Eur J Med Chem, 2020).

The source made the active and inactive calls. The calls are words filed in the database; no cut-off is given here. Starred links: 1 amine or outer side, 2 acyl side, 3 side chain; linkers in the order of their positions; H or OH if unused. Residues, ends and D or L forms follow the SMILES beside them. Groups on a side chain read outwards from the residue. *: point of attachment. X5 = CC(=O)[C@H](CCCCNC(=O)CC[C@H](NC(=O)CCCCCCCCCCNC(=O)COC(=O)C(C)(C)CCCOc1cc(C)ccc1C)C(=O)O)N*; X4 = CC(=O)[C@H](CCCCNC(=O)CC[C@H](NC(=O)COC(=O)C(C)(C)CCCOc1cc(C)ccc1C)C(=O)O)N*; Glycoloyl(O-gemfibrozoyl) = Cc1ccc(C)c(OCCCC(C)(C)C(=O)OCC(=O)*)c1; γGlu = O=C(O)[C@H](CCC(=O)[*:2])N[*:1]; Aun = NCCCCCCCCCCC(=O)O; Ahx = NCCCCCC(=O)O

The nature of data set [1]: Stability in Sprague-Dawley rat plasma at 1000 ng/ml measured up to 48 hrs under shaking condition by LC-MS/MS analysis. It counts as ADME, cell-free.
Data set [2] can be described thus: Stability in Sprague-Dawley rat plasma assessed as half life at 1000 ng/ml measured up to 48 hrs under shaking condition by LC-MS/MS analysis. It counts as ADME, cell-free.
The next data set deals with Mus musculus. The data set is described as follows: Hypoglycemic activity in 12 hrs fasted ICR mouse assessed as reduction in blood glucose level at 25 nmol/kg, ip dosed 30 mins before glucose challenge measured up to 120 mins by OGTT method. It is filed as functional, organism-based. To be noted: time 150.0 min.
The target of data set [3] is Glucagon-like peptide 1 receptor (Homo sapiens, UniProt P43220). As to the kind of experiment: Agonist activity at human GLP-1R expressed in HEK293 cells assessed as stimulation of cAMP accumulation incubated for 60 mins by HTRF assay. It is filed as functional, cell-based. (Cyclic AMP is a second messenger, typically raised through Gs and lowered through Gi signalling.)
Sequence of Glucagon-like peptide 1 receptor (P43220 whole entry): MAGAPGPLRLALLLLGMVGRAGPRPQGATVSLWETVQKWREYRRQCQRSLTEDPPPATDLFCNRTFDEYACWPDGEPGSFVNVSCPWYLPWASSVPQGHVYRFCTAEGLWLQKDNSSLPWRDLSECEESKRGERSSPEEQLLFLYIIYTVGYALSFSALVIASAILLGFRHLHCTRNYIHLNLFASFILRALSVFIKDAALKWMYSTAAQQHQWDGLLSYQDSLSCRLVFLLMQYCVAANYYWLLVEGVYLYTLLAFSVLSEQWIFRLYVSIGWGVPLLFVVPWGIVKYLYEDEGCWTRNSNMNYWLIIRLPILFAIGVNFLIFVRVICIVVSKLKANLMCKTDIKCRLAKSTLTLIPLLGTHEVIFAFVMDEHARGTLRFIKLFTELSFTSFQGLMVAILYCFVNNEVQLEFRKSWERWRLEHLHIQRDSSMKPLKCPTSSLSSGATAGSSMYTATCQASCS

One may read the half-life as the time in which the quantity being followed falls by half. Broadly, the EC50 is the midpoint of the concentration-response curve. Regarding `CC[C@H](C)[C@H](NC(=O)[C@H](CC(C)C)NC(=O)[C@H](Cc1c[nH]c2ccccc12)NC(=O)[C@H](CCC(=O)O)NC(=O)[C@@H](NC(=O)[C@H](Cc1ccccc1)NC(=O)[C@H](CCC(=O)O)NC(=O)[C@H](CCCCNC(=O)CC[C@H](NC(=O)CCCCCCCCCCNC(=O)COC(=O)C(C)(C)CCCOc1cc(C)ccc1C)C(=O)O)NC(=O)[C@H](C)NC(=O)[C@H](C)NC(=O)[C@H](CCC(=O)O)NC(=O)[C@H](CCC(=O)O)NC(=O)[C@H](CCC(=O)O)NC(=O)[C@H](CC(C)C)NC(=O)[C@H](Cc1ccc(O)cc1)NC(=O)[C@H](CCC(=O)O)NC(=O)[C@@H](NC(=O)[C@@H](NC(=O)[C@H](CC(=O)O)NC(=O)[C@H](CC(N)=O)NC(=O)[C@@H](NC(=O)[C@H](Cc1ccc(O)cc1)NC(=O)[C@@H](NC(=O)CNC(=O)[C@H](CCC(=O)O)NC(=O)CNC(=O)[C@@H](N)Cc1cnc[nH]1)[C@@H](C)O)[C@@H](C)O)C(C)C)[C@@H](C)O)[C@@H](C)CC)C(=O)N[C@@H](CCCCN)C(=O)NCC(=O)N[C@@H](CCCCN)C(=O)O` (H-HGEGTYTNDVTEYLEEEAAK([γGlu-Aun-Glycoloyl(O-gemfibrozoyl)])EFIEWLIKGK-OH), the Stabilty entry in data set [1] is recorded as “Stable”. Besides, in data set [2], the half-life at 1000 ng/ml is 18.1 h. In the data set with Mus musculus, the result was Active. The EC50 in data set [3] came out at 0.093 nM.
`CC[C@H](C)[C@H](NC(=O)[C@H](CC(C)C)NC(=O)[C@H](Cc1c[nH]c2ccccc12)NC(=O)[C@H](CCC(=O)O)NC(=O)[C@@H](NC(=O)[C@H](Cc1ccccc1)NC(=O)[C@H](CCC(=O)O)NC(=O)[C@H](CCCCN)NC(=O)[C@H](C)NC(=O)[C@H](C)NC(=O)[C@H](CCC(=O)O)NC(=O)[C@H](CCC(=O)O)NC(=O)[C@H](CCC(=O)O)NC(=O)[C@H](CC(C)C)NC(=O)[C@H](Cc1ccc(O)cc1)NC(=O)[C@H](CCC(=O)O)NC(=O)[C@@H](NC(=O)[C@@H](NC(=O)[C@H](CC(=O)O)NC(=O)[C@H](CC(N)=O)NC(=O)[C@@H](NC(=O)[C@H](Cc1ccc(O)cc1)NC(=O)[C@@H](NC(=O)CNC(=O)[C@H](CCC(=O)O)NC(=O)CNC(=O)[C@@H](N)Cc1cnc[nH]1)[C@@H](C)O)[C@@H](C)O)C(C)C)[C@@H](C)O)[C@@H](C)CC)C(=O)N[C@@H](CCCCNC(=O)CC[C@H](NC(=O)CCCCCNC(=O)COC(=O)C(C)(C)CCCOc1cc(C)ccc1C)C(=O)O)C(=O)NCC(=O)N[C@@H](CCCCN)C(=O)O` (H-HGEGTYTNDVTEYLEEEAAKEFIEWLIK([γGlu-Ahx-Glycoloyl(O-gemfibrozoyl)])GK-OH): the Stabilty result in data set [1] is reported as “Stable”. Moreover, in the data set with Mus musculus, the result was Active. In addition, the EC50 in data set [3] came to 0.21 nM.
As to `CC[C@H](C)[C@H](NC(=O)[C@H](CC(C)C)NC(=O)[C@H](Cc1c[nH]c2ccccc12)NC(=O)[C@H](CCC(=O)O)NC(=O)[C@@H](NC(=O)[C@H](Cc1ccccc1)NC(=O)[C@H](CCC(=O)O)NC(=O)[C@H](CCCCN)NC(=O)[C@H](C)NC(=O)[C@H](C)NC(=O)[C@H](CCC(=O)O)NC(=O)[C@H](CCC(=O)O)NC(=O)[C@H](CCC(=O)O)NC(=O)[C@H](CC(C)C)NC(=O)[C@H](Cc1ccc(O)cc1)NC(=O)[C@H](CCC(=O)O)NC(=O)[C@@H](NC(=O)[C@@H](NC(=O)[C@H](CC(=O)O)NC(=O)[C@H](CC(N)=O)NC(=O)[C@@H](NC(=O)[C@H](Cc1ccc(O)cc1)NC(=O)[C@@H](NC(=O)CNC(=O)[C@H](CCC(=O)O)NC(=O)CNC(=O)[C@@H](N)Cc1cnc[nH]1)[C@@H](C)O)[C@@H](C)O)C(C)C)[C@@H](C)O)[C@@H](C)CC)C(=O)N[C@@H](CCCCNC(=O)CC[C@H](NC(=O)CCCCCCCCCCNC(=O)COC(=O)C(C)(C)CCCOc1cc(C)ccc1C)C(=O)O)C(=O)NCC(=O)N[C@@H](CCCCN)C(=O)O` (H-HGEGTYTNDVTEYLEEEAAKEFIEWLIK([γGlu-Aun-Glycoloyl(O-gemfibrozoyl)])GK-OH), the Stabilty entry in data set [1] is on record as “Stable”. In addition, the outcome in the data set with Mus musculus was Active. Moreover, the EC50 in data set [3] came to 0.21 nM.
The like results for `CC[C@H](C)[C@H](NC(=O)[C@H](CC(C)C)NC(=O)[C@H](Cc1c[nH]c2ccccc12)NC(=O)[C@H](CCC(=O)O)NC(=O)[C@@H](NC(=O)[C@H](Cc1ccccc1)NC(=O)[C@H](CCC(=O)O)NC(=O)[C@H](CCCCN)NC(=O)[C@H](C)NC(=O)[C@H](C)NC(=O)[C@H](CCC(=O)O)NC(=O)[C@H](CCC(=O)O)NC(=O)[C@H](CCC(=O)O)NC(=O)[C@H](CC(C)C)NC(=O)[C@H](Cc1ccc(O)cc1)NC(=O)[C@H](CCC(=O)O)NC(=O)[C@@H](NC(=O)[C@@H](NC(=O)[C@H](CC(=O)O)NC(=O)[C@H](CC(N)=O)NC(=O)[C@@H](NC(=O)[C@H](Cc1ccc(O)cc1)NC(=O)[C@@H](NC(=O)CNC(=O)[C@H](CCC(=O)O)NC(=O)CNC(=O)[C@@H](N)Cc1cnc[nH]1)[C@@H](C)O)[C@@H](C)O)C(C)C)[C@@H](C)O)[C@@H](C)CC)C(=O)N[C@@H](CCCCNC(=O)CC[C@H](NC(=O)COC(=O)C(C)(C)CCCOc1cc(C)ccc1C)C(=O)O)C(=O)NCC(=O)N[C@@H](CCCCN)C(=O)O` (H-HGEGTYTNDVTEYLEEEAAKEFIEWLIK([γGlu-Glycoloyl(O-gemfibrozoyl)])GK-OH) were, in that order, “Stable”, “Active” and 0.21 nM.
For `CC[C@H](C)[C@H](NC(=O)[C@H](CC(C)C)NC(=O)[C@H](Cc1c[nH]c2ccccc12)NC(=O)[C@H](CCC(=O)O)NC(=O)[C@@H](NC(=O)[C@H](Cc1ccccc1)NC(=O)[C@H](CCC(=O)O)NC(=O)[C@H](CCCCN)NC(=O)[C@H](C)NC(=O)[C@H](C)NC(=O)[C@H](CCC(=O)O)NC(=O)[C@H](CCC(=O)O)NC(=O)[C@H](CCC(=O)O)NC(=O)[C@H](CC(C)C)NC(=O)[C@H](Cc1ccc(O)cc1)NC(=O)[C@H](CCC(=O)O)NC(=O)[C@@H](NC(=O)[C@@H](NC(=O)[C@H](CC(=O)O)NC(=O)[C@H](CC(N)=O)NC(=O)[C@@H](NC(=O)[C@H](Cc1ccc(O)cc1)NC(=O)[C@@H](NC(=O)CNC(=O)[C@H](CCC(=O)O)NC(=O)CNC(=O)[C@@H](N)Cc1cnc[nH]1)[C@@H](C)O)[C@@H](C)O)C(C)C)[C@@H](C)O)[C@@H](C)CC)C(=O)N[C@@H](CCCCN)C(=O)NCC(=O)N[C@@H](CCCCNC(=O)CC[C@H](NC(=O)COC(=O)C(C)(C)CCCOc1cc(C)ccc1C)C(=O)O)C(C)=O` (H-HGEGTYTNDVTEYLEEEAAKEFIEWLIKG-X4), in that order: “Stable”, “Active” and 0.38 nM.
Turning to `CC[C@H](C)[C@H](NC(=O)[C@H](CC(C)C)NC(=O)[C@H](Cc1c[nH]c2ccccc12)NC(=O)[C@H](CCC(=O)O)NC(=O)[C@@H](NC(=O)[C@H](Cc1ccccc1)NC(=O)[C@H](CCC(=O)O)NC(=O)[C@H](CCCCN)NC(=O)[C@H](C)NC(=O)[C@H](C)NC(=O)[C@H](CCC(=O)O)NC(=O)[C@H](CCC(=O)O)NC(=O)[C@H](CCC(=O)O)NC(=O)[C@H](CC(C)C)NC(=O)[C@H](Cc1ccc(O)cc1)NC(=O)[C@H](CCC(=O)O)NC(=O)[C@@H](NC(=O)[C@@H](NC(=O)[C@H](CC(=O)O)NC(=O)[C@H](CC(N)=O)NC(=O)[C@@H](NC(=O)[C@H](Cc1ccc(O)cc1)NC(=O)[C@@H](NC(=O)CNC(=O)[C@H](CCC(=O)O)NC(=O)CNC(=O)[C@@H](N)Cc1cnc[nH]1)[C@@H](C)O)[C@@H](C)O)C(C)C)[C@@H](C)O)[C@@H](C)CC)C(=O)N[C@@H](CCCCN)C(=O)NCC(=O)N[C@@H](CCCCNC(=O)CC[C@H](NC(=O)CCCCCCCCCCNC(=O)COC(=O)C(C)(C)CCCOc1cc(C)ccc1C)C(=O)O)C(C)=O` (H-HGEGTYTNDVTEYLEEEAAKEFIEWLIKG-X5), the Stabilty entry in data set [1] is “Stable”. Besides, in the data set with Mus musculus, the result was Active. In data set [3], the EC50 turned out to be 0.38 nM.
The like results for `CC[C@H](C)[C@H](NC(=O)[C@H](CC(C)C)NC(=O)[C@H](Cc1c[nH]c2ccccc12)NC(=O)[C@H](CCC(=O)O)NC(=O)[C@@H](NC(=O)[C@H](Cc1ccccc1)NC(=O)[C@H](CCC(=O)O)NC(=O)[C@H](CCCCN)NC(=O)[C@H](C)NC(=O)[C@H](C)NC(=O)[C@H](CCC(=O)O)NC(=O)[C@H](CCC(=O)O)NC(=O)[C@H](CCC(=O)O)NC(=O)[C@H](CC(C)C)NC(=O)[C@H](Cc1ccc(O)cc1)NC(=O)[C@H](CCC(=O)O)NC(=O)[C@@H](NC(=O)[C@@H](NC(=O)[C@H](CC(=O)O)NC(=O)[C@H](CC(N)=O)NC(=O)[C@@H](NC(=O)[C@H](Cc1ccc(O)cc1)NC(=O)[C@@H](NC(=O)CNC(=O)[C@H](CCC(=O)O)NC(=O)CNC(=O)[C@@H](N)Cc1cnc[nH]1)[C@@H](C)O)[C@@H](C)O)C(C)C)[C@@H](C)O)[C@@H](C)CC)C(=O)N[C@@H](CCCCN)C(=O)NCC(=O)N[C@@H](CCCCNC(=O)CC[C@H](NC(=O)CCCCCNC(=O)COC(=O)C(C)(C)CCCOc1cc(C)ccc1C)C(=O)O)C(=O)O` (H-HGEGTYTNDVTEYLEEEAAKEFIEWLIKGK([γGlu-Ahx-Glycoloyl(O-gemfibrozoyl)])-OH) were, in that order, “Stable”, “Active” and 0.38 nM.
For `CC[C@H](C)[C@H](NC(=O)[C@H](CC(C)C)NC(=O)[C@H](Cc1c[nH]c2ccccc12)NC(=O)[C@H](CCC(=O)O)NC(=O)[C@@H](NC(=O)[C@H](Cc1ccccc1)NC(=O)[C@H](CCC(=O)O)NC(=O)[C@H](CCCCNC(=O)CC[C@H](NC(=O)COC(=O)C(C)(C)CCCOc1cc(C)ccc1C)C(=O)O)NC(=O)[C@H](C)NC(=O)[C@H](C)NC(=O)[C@H](CCC(=O)O)NC(=O)[C@H](CCC(=O)O)NC(=O)[C@H](CCC(=O)O)NC(=O)[C@H](CC(C)C)NC(=O)[C@H](Cc1ccc(O)cc1)NC(=O)[C@@H](NC(=O)[C@@H](NC(=O)[C@@H](NC(=O)[C@H](CC(=O)O)NC(=O)[C@H](CC(N)=O)NC(=O)[C@@H](NC(=O)[C@H](Cc1ccc(O)cc1)NC(=O)[C@@H](NC(=O)CNC(=O)[C@H](CCC(=O)O)NC(=O)CNC(=O)[C@@H](N)Cc1cnc[nH]1)[C@@H](C)O)[C@@H](C)O)C(C)C)[C@@H](C)O)C(C)C)[C@@H](C)CC)C(=O)N[C@@H](CCCCN)C(=O)NCC(=O)N[C@@H](CCCCN)C(=O)O` (H-HGEGTYTNDVTVYLEEEAAK([γGlu-Glycoloyl(O-gemfibrozoyl)])EFIEWLIKGK-OH), the Stabilty result in data set [1] is given as “Stable”. For the same molecule, the result with Mus musculus was Active. In data set [3], the 50% effective concentration (EC50) came to 0.093 nM.
